Assays:
Assay in all cases: Test E pre-/postemergence herbicide test
Surinam grass = format: in vivo, Urochloa decumbens
Text: (§1) Seeds of plant species selected from bipinnate beggarticks (Bidens bipinnata L.), hairy beggarticks (Bidens radiata Thuill.), bermudagrass (Cynodon dactylon (L.) Pers.), Surinam grass (Urochloa decumbens (Staph) R. D. Webster, previously named Brachiaria decumbens Stapf), large crabgrass (Digitaria sanguinalis (L.) Scop.), green foxtail (Setaria viridis (L.) P. Beauv.), goosegrass (Eleusine indica (L.) Gaertn.), johnsongrass (Sorghum halepense (L.) Pers.), kochia (Kochia scoparia (L.) Schrad.), pitted morningglory (Ipomoea lacunosa L.), purple nutsedge (Cyperus rotundus L.), common ragweed (Ambrosia elatior L.), mustard (Brassica nigra (L.) W. D. J. Koch), guineagrass (Panicum maximum Jacq.), dallisgrass (Paspalum dilatatum Poir.), barnyardgrass (Echinochloa crus-galli (L). P. Beauv.), southern sandbur (Cenchrus echinatus L.), common sowthistle (Sonchus oleraceous L.), prickly sida (Sida spinosa L.), Italian ryegrass (Lolium multiflorum Lam.), common purslane (Portulaca oleracea L.), broadleaf signalgrass (Brachiaria platyphylla (Griseb.) Nash), common groundsel (Senecio vulgaris L.), common chickweed (Stellaria media (L.) Vill/Cyr.), tropical spiderwort (Commelina benghalensis L.), annual bluegrass (Poa annua L.), downy bromegrass (Bromus tectorum L.), itchgrass (Rottboellia cochinchinensis (L.) L.f.), quackgrass (Elytrigia repens (L.) Nevski), Canada horseweed (Erigeron Canadensis L.), field bindweed (Convolvulus arvensis L.), spotted spurge (Euphorbia maculata L.), common mallow (Malva sylvestris (=s silvestris) L.), and Russian thistle (Salsola kali L. ssp. Ruthenica (Iljin) Soo) were planted and treated preemergence with test chemicals formulated in a non-phytotoxic solvent mixture which included a surfactant.
(§2) At the same time, plants selected from these weed species were treated with postemergence applications of some of the test chemicals formulated in the same manner. Plants ranged in height from 2 to 18 cm (1- to 4-leaf stage) for postemergence treatments. Treated plants and controls were maintained in a greenhouse for 12 to 14 days, after which time all species were compared to controls and visually evaluated. Plant response ratings, summarized in Table E, are based on a scale of 0 to 100 where 0 is no effect and 100 is complete control. A dash (-) response means no test result.

goosegrass = format: in vivo, Eleusine indica
Text: as §1, §2

pitted morningglory = format: in vivo, Ipomoea lacunosa
Text: as §1, §2

common ragweed = format: in vivo, Ambrosia elatior
Text: as §1, §2

dallisgrass = format: in vivo, Paspalum dilatatum
Text: as §1, §2

barnyardgrass = format: in vivo, Echinochloa crus-galli
Text: as §1, §2

broadleaf signalgrass = format: in vivo, Brachiaria platyphylla
Text: as §1, §2

common groundsel = format: in vivo, Senecio vulgaris
Text: as §1, §2

tropical spiderwort = format: in vivo, Commelina benghalensis
Text: as §1, §2

annual bluegrass = format: in vivo, Poa annua
Text: as §1, §2

itchgrass = format: in vivo, Rottboellia cochinchinensis
Text: as §1, §2

common mallow = format: in vivo, Malva sylvestris
Text: as §1, §2

[1] = Postemergence, 500 g ai/ha, scale 0 to 100
[2] = Postemergence, 250 g ai/ha, scale 0 to 100
[3] = Preemergence, 62 g ai/ha, scale 0 to 100
[4] = Preemergence, 125 g ai/ha, scale 0 to 100
[5] = Preemergence, 500 g ai/ha, scale 0 (no effect) to 100 (complete control)
[6] = postemergence, 125 g ai/ha, scale 0 to 100
[7] = Preemergence, 250 g ai/ha, scale 0 (no effect) to 100 (complete control)

CCNC(=O)c1ccnc(NC(=O)c2cc(C(C)(C)C)nn2CC)c1 [Compound 152]
Plant response rating, Surinam Grass (Surinam grass; [1]): 80 | Plant response rating, Surinam Grass (Surinam grass; [2]): 60 | Plant response rating, Surinam Grass (Surinam grass; [3]): 20 | Plant response rating, Surinam Grass (Surinam grass; [4]): 50 | Plant response rating, Surinam Grass (Surinam grass; [5]): 80 | Plant response rating, Surinam Grass (Surinam grass; [6]): 30 | Plant response rating, Goosegrass (goosegrass; [1]): 75 | Plant response rating, Goosegrass (goosegrass; [2]): 60 | Plant response rating, Goosegrass (goosegrass; [3]): 30 | Plant response rating, Goosegrass (goosegrass; [4]): 70 | Plant response rating, Goosegrass (goosegrass; [7]): 80 | Plant response rating, Goosegrass (goosegrass; [5]): 90 | Plant response rating, Goosegrass (goosegrass; [6]): 50 | Plant response rating, Morningglory (pitted morningglory; [1]): 30 | Plant response rating, Morningglory (pitted morningglory; [2]): 20 | Plant response rating, Morningglory (pitted morningglory; [3]): 10 | Plant response rating, Morningglory (pitted morningglory; [4]): 10 | Plant response rating, Morningglory (pitted morningglory; [7]): 40 | Plant response rating, Morningglory (pitted morningglory; [5]): 40 | Plant response rating, Morningglory (pitted morningglory; [6]): 10 | Plant response rating, Ragweed (common ragweed; [1]): 75 | Plant response rating, Ragweed (common ragweed; [2]): 60 | Plant response rating, Ragweed (common ragweed; [3]): 20 | Plant response rating, Ragweed (common ragweed; [4]): 60 | Plant response rating, Ragweed (common ragweed; [7]): 80 | Plant response rating, Ragweed (common ragweed; [5]): 80 | Plant response rating, Ragweed (common ragweed; [6]): 50 | Plant response rating, Dallisgrass (dallisgrass; [1]): 75 | Plant response rating, Dallisgrass (dallisgrass; [2]): 75 | Plant response rating, Dallisgrass (dallisgrass; [3]): 50 | Plant response rating, Dallisgrass (dallisgrass; [4]): 80 | Plant response rating, Dallisgrass (dallisgrass; [7]): 85 | Plant response rating, Dallisgrass (dallisgrass; [5]): 95 | Plant response rating, Dallisgrass (dallisgrass; [6]): 30 | Plant response rating, Barnyardgrass (barnyardgrass; [1]): 75 | Plant response rating, Barnyardgrass (barnyardgrass; [2]): 75 | Plant response rating, Barnyardgrass (barnyardgrass; [3]): 60 | Plant response rating, Barnyardgrass (barnyardgrass; [4]): 75 | Plant response rating, Barnyardgrass (barnyardgrass; [7]): 85 | Plant response rating, Barnyardgrass (barnyardgrass; [5]): 90 | Plant response rating, Barnyardgrass (barnyardgrass; [6]): 50 | Plant response rating, Signalgrass (broadleaf signalgrass; [1]): 70 | Plant response rating, Signalgrass (broadleaf signalgrass; [2]): 60 | Plant response rating, Signalgrass (broadleaf signalgrass; [3]): 10 | Plant response rating, Signalgrass (broadleaf signalgrass; [4]): 40 | Plant response rating, Signalgrass (broadleaf signalgrass; [7]): 70 | Plant response rating, Signalgrass (broadleaf signalgrass; [5]): 80 | Plant response rating, Signalgrass (broadleaf signalgrass; [6]): 20 | Plant response rating, Groundsel (common groundsel; [1]): 95 | Plant response rating, Groundsel (common groundsel; [2]): 95 | Plant response rating, Groundsel (common groundsel; [3]): 95 | Plant response rating, Groundsel (common groundsel; [4]): 100 | Plant response rating, Groundsel (common groundsel; [7]): 100 | Plant response rating, Groundsel (common groundsel; [5]): 100 | Plant response rating, Groundsel (common groundsel; [6]): 90 | Plant response rating, Spiderwort (tropical spiderwort; [1]): 80 | Plant response rating, Spiderwort (tropical spiderwort; [2]): 10 | Plant response rating, Spiderwort (tropical spiderwort; [3]): 10 | Plant response rating, Spiderwort (tropical spiderwort; [4]): 20 | Plant response rating, Spiderwort (tropical spiderwort; [7]): 75 | Plant response rating, Spiderwort (tropical spiderwort; [5]): 80 | Plant response rating, Bluegrass (annual bluegrass; [1]): 85 | Plant response rating, Bluegrass (annual bluegrass; [2]): 85 | Plant response rating, Bluegrass (annual bluegrass; [3]): 60 | Plant response rating, Bluegrass (annual bluegrass; [4]): 80 | Plant response rating, Bluegrass (annual bluegrass; [7]): 95 | Plant response rating, Bluegrass (annual bluegrass; [5]): 95 | Plant response rating, Bluegrass (annual bluegrass; [6]): 60 | Plant response rating, Itchgrass (itchgrass; [1]): 75 | Plant response rating, Itchgrass (itchgrass; [2]): 75 | Plant response rating, Itchgrass (itchgrass; [3]): 20 | Plant response rating, Itchgrass (itchgrass; [4]): 60 | Plant response rating, Itchgrass (itchgrass; [7]): 75 | Plant response rating, Itchgrass (itchgrass; [5]): 80 | Plant response rating, Itchgrass (itchgrass; [6]): 60 | Plant response rating, Mallow (common mallow; [1]): 50 | Plant response rating, Mallow (common mallow; [2]): 50 | Plant response rating, Mallow (common mallow; [3]): 40 | Plant response rating, Mallow (common mallow; [4]): 80 | Plant response rating, Mallow (common mallow; [7]): 90 | Plant response rating, Mallow (common mallow; [5]): 90

Cc1nn(C(C)(C)C)nc1C(=O)Nc1cccc(C(=O)N(C)C)c1 [Compound 391]
Plant response rating, Surinam Grass (Surinam grass; [4]): 70 | Plant response rating, Surinam Grass (Surinam grass; [5]): 100 | Plant response rating, Goosegrass (goosegrass; [3]): 30 | Plant response rating, Goosegrass (goosegrass; [4]): 80 | Plant response rating, Goosegrass (goosegrass; [7]): 90 | Plant response rating, Goosegrass (goosegrass; [5]): 95 | Plant response rating, Morningglory (pitted morningglory; [3]): 10 | Plant response rating, Morningglory (pitted morningglory; [4]): 60 | Plant response rating, Morningglory (pitted morningglory; [7]): 80 | Plant response rating, Morningglory (pitted morningglory; [5]): 80 | Plant response rating, Ragweed (common ragweed; [3]): 50 | Plant response rating, Ragweed (common ragweed; [4]): 75 | Plant response rating, Ragweed (common ragweed; [7]): 95 | Plant response rating, Ragweed (common ragweed; [5]): 100 | Plant response rating, Dallisgrass (dallisgrass; [3]): 60 | Plant response rating, Dallisgrass (dallisgrass; [4]): 80 | Plant response rating, Dallisgrass (dallisgrass; [7]): 95 | Plant response rating, Dallisgrass (dallisgrass; [5]): 95 | Plant response rating, Barnyardgrass (barnyardgrass; [3]): 50 | Plant response rating, Barnyardgrass (barnyardgrass; [4]): 100 | Plant response rating, Barnyardgrass (barnyardgrass; [7]): 100 | Plant response rating, Barnyardgrass (barnyardgrass; [5]): 100 | Plant response rating, Signalgrass (broadleaf signalgrass; [3]): 40 | Plant response rating, Signalgrass (broadleaf signalgrass; [4]): 70 | Plant response rating, Signalgrass (broadleaf signalgrass; [7]): 90 | Plant response rating, Signalgrass (broadleaf signalgrass; [5]): 90 | Plant response rating, Groundsel (common groundsel; [4]): 95 | Plant response rating, Groundsel (common groundsel; [7]): 100 | Plant response rating, Groundsel (common groundsel; [5]): 100 | Plant response rating, Spiderwort (tropical spiderwort; [4]): 90 | Plant response rating, Spiderwort (tropical spiderwort; [7]): 90 | Plant response rating, Spiderwort (tropical spiderwort; [5]): 95 | Plant response rating, Bluegrass (annual bluegrass; [3]): 95 | Plant response rating, Bluegrass (annual bluegrass; [4]): 95 | Plant response rating, Bluegrass (annual bluegrass; [7]): 95 | Plant response rating, Bluegrass (annual bluegrass; [5]): 95 | Plant response rating, Itchgrass (itchgrass; [3]): 50 | Plant response rating, Itchgrass (itchgrass; [4]): 80 | Plant response rating, Itchgrass (itchgrass; [7]): 90 | Plant response rating, Itchgrass (itchgrass; [5]): 95 | Plant response rating, Mallow (common mallow; [3]): 80 | Plant response rating, Mallow (common mallow; [4]): 80 | Plant response rating, Mallow (common mallow; [7]): 100 | Plant response rating, Mallow (common mallow; [5]): 100

CCc1nn(C(C)(C)CC)nc1C(=O)Nc1cccc(C(=O)N(C)C)c1 [Compound 372]
Plant response rating, Surinam Grass (Surinam grass; [4]): 40 | Plant response rating, Surinam Grass (Surinam grass; [5]): 75 | Plant response rating, Goosegrass (goosegrass; [3]): 40 | Plant response rating, Goosegrass (goosegrass; [4]): 40 | Plant response rating, Goosegrass (goosegrass; [7]): 50 | Plant response rating, Goosegrass (goosegrass; [5]): 75 | Plant response rating, Morningglory (pitted morningglory; [3]): 10 | Plant response rating, Morningglory (pitted morningglory; [4]): 20 | Plant response rating, Morningglory (pitted morningglory; [7]): 50 | Plant response rating, Morningglory (pitted morningglory; [5]): 60 | Plant response rating, Ragweed (common ragweed; [3]): 10 | Plant response rating, Ragweed (common ragweed; [4]): 20 | Plant response rating, Ragweed (common ragweed; [7]): 40 | Plant response rating, Ragweed (common ragweed; [5]): 70 | Plant response rating, Dallisgrass (dallisgrass; [3]): 10 | Plant response rating, Dallisgrass (dallisgrass; [4]): 50 | Plant response rating, Dallisgrass (dallisgrass; [7]): 80 | Plant response rating, Dallisgrass (dallisgrass; [5]): 85 | Plant response rating, Barnyardgrass (barnyardgrass; [3]): 50 | Plant response rating, Barnyardgrass (barnyardgrass; [4]): 70 | Plant response rating, Barnyardgrass (barnyardgrass; [7]): 80 | Plant response rating, Barnyardgrass (barnyardgrass; [5]): 95 | Plant response rating, Signalgrass (broadleaf signalgrass; [3]): 0 | Plant response rating, Signalgrass (broadleaf signalgrass; [4]): 10 | Plant response rating, Signalgrass (broadleaf signalgrass; [7]): 40 | Plant response rating, Signalgrass (broadleaf signalgrass; [5]): 60 | Plant response rating, Groundsel (common groundsel; [3]): 20 | Plant response rating, Groundsel (common groundsel; [4]): 70 | Plant response rating, Groundsel (common groundsel; [7]): 70 | Plant response rating, Groundsel (common groundsel; [5]): 95 | Plant response rating, Spiderwort (tropical spiderwort; [4]): 70 | Plant response rating, Spiderwort (tropical spiderwort; [7]): 70 | Plant response rating, Spiderwort (tropical spiderwort; [5]): 80 | Plant response rating, Bluegrass (annual bluegrass; [3]): 30 | Plant response rating, Bluegrass (annual bluegrass; [4]): 80 | Plant response rating, Bluegrass (annual bluegrass; [7]): 95 | Plant response rating, Bluegrass (annual bluegrass; [5]): 95 | Plant response rating, Itchgrass (itchgrass; [3]): 30 | Plant response rating, Itchgrass (itchgrass; [4]): 60 | Plant response rating, Itchgrass (itchgrass; [7]): 60 | Plant response rating, Itchgrass (itchgrass; [5]): 80 | Plant response rating, Mallow (common mallow; [3]): 50 | Plant response rating, Mallow (common mallow; [4]): 50 | Plant response rating, Mallow (common mallow; [7]): 80 | Plant response rating, Mallow (common mallow; [5]): 90

From patent US20060069132A1, “Azolecarboxamide herbicides” (priority 2004, published 2006)
